Laboratory results: patent US20180251483A1, “THIOCYANATE SALTS FOR ANTI-INFLAMMATION” (National Jewish Health, priority 2015, published 2018)

Key:
rat brain homogenates = test: Iron/ascorbate-initiated lipid peroxidation of rat brain homogenates, TBARS assay; format: biochemical; conditions: comparison of the two salts
Method: Legend: Cmpd 10150-Cl (circles); Cmpd 10150-SCN (boxes).
The ability of the salts of the invention to inhibit lipid peroxidation was assessed as described by Ohkawa et al. (Anal. Biochem. 95:351 (1979)) and Yue et al. (J. Pharmacol. Exp. Ther. 263:92 (1992)). Iron and ascorbate can be used to initiate lipid peroxidation in tissue homogenates and the formation of thiobarbituric acid reactive species (TBARS) measured. Lipid peroxidation causes cell damage by radicals, which destroys lipids in cell membranes resulting in oxidative and inflammatory injury.
Both the chloride and thiocyanate salts of 10150 have similar lipid peroxide inhibition. Lipid peroxidation of rat brain homogenates was initiated with iron/ascorbate in the presence or absence of various concentrations of 10150-Cl or 10150-SCN. Lipid peroxidation was quantified using the TBARS assay with malondialdehyde standards. The data was normalized and curve fitted to determine the inhibitory concentrations that decreased lipid peroxidation by one-half (IC50).

[1] = stated as known; cited from earlier work
[2] = Catalase activity: H2O2 consumption followed with a hydrogen peroxide selective electrode; format: biochemical
Method: FIG. 4 is a line graph showing effects of 1 mM NaSCN on the consumption of H2O2 by 10150-Cl at a fixed concentration of 12.5 μM and various H2O2 concentrations. Legend: Cmpd 10150-Cl (circles); Cmpd 10150-Cl+SCN (1 mM) (triangles).
To test whether SCN was acting as a competing substrate in the catalase activity one examined the change in 10150-Cl catalase activity by following the disappearance of H2O2 over time with a H2O2 selective electrode in the presence or absence of 1 mM NaSCN.
Experimental Conditions: Effects of 1 mM NaSCN on the consumption of H2O2 by 10150-Cl was investigated at a fixed concentration of 12.5 μM and various H2O2 concentrations. H2O2 consumption was followed over time with a hydrogen peroxide selective electrode (HPO) using a free radical analyzer (WPI). Changes in pA were converted to H2O2 using a 5 point H2O2 standard curve. The data was fitted as a linear curve using Prizm software. The rate constant for 10150-Cl was 0.09±0.004 min^−1 and in the presence of 1 mM NaSCN was decreased to 0.02±0.004 min^−1.

[3] = Oxygen formation from H2O2 followed with an oxygen selective electrode (catalase to haloperoxidase conversion); format: biochemical
Method: FIG. 5 is a bar graph showing the inhibition of oxygen formation by 10150-Cl in the presence of hydrogen peroxide and thiocyanate. Bins (left to right); 25 uM Cmpd 10150; 50 uM Cmpd 10150. Legend: control (open); SCN 1 mM (closed).
It was examined whether SCN was being utilized as a substrate in a peroxidase reaction by looking at the inhibition of oxygen formation. If 10150-Cl was utilizing SCN along with H2O2, then no oxygen would be generated (see Eq 2).
To examine the rate of oxygen formation in the presence of 10150-Cl, H2O2 in the presence or absence of NaSCN, one utilized an oxygen selective electrode with a free radical analyzer (WPI). Changes in pA were converted to O2 using the difference of the O2 concentration in a saturated solution minus that of the solution made anaerobic by the addition of dithionite.
Experimental Conditions: Conversion of catalase activity to haloperoxidase activity of 10150-Cl with the addition of thiocyanate (SCN). Oxygen formation was followed with an oxygen selective electrode in a reaction mixture containing 10150 at either 25 or 50 μM and 1 mM H2O2 in the presence or absence of 1 mM SCN.

[4] = system: Human bronchial epithelial cells (HBE); test: Hypochlorite-induced injury of human bronchial epithelial cells, MTT viability assay; format: cell-based; conditions: 250 μM HOCl for 30 minutes, 10 μM compound, MTT 24 hours post exposure, compared to 10150-Cl or NaSCN
Method: Bins (left to right): PBS (phosphate buffered saline); 250 uM HOCl; 250 uM HOCl+10 uM 10150-Cl; 250 uM HOCL+10 uM 10150-SCN; 250 uM HOCL+10 uM NaSCN.
Human bronchial epithelial cells (HBE) were exposed to 250 μM of hypochlorite (HOCl) for 30 minutes in the presence or absence of 10 μM of 10150-Cl, 10150-SCN, or NaSCN and cell injury was assessed 24 hours post HOCl exposure using the MTT viability assay.

CCN1C=CN(CC)C1=C1C2=NC(=C(c3n(CC)cc[n+]3CC)C3=NC(=C(c4n(CC)cc[n+]4CC)c4ccc([n-]4)C(c4n(CC)cc[n+]4CC)=C4C=CC1=N4)C=C3)C=C2.[Cl-].[Cl-].[Cl-].[Cl-].[Cl-].[Mn+3] [10150-Cl, [5,10,15,20 tetrakis(1,3-diethylmidazolium-2-yl)porphyrinato] manganese (III) pentachloride]
IC50 of lipid peroxidation (TBARS formation) (rat brain homogenates): not statistically different
catalase activity (dismutation of hydrogen peroxide into oxygen and water) [1]: known to possess catalase activity
rate constant of H2O2 consumption in the presence of 1 mM NaSCN ([2]; 12.5 μM compound, various H2O2 concentrations, 1 mM NaSCN): 0.02 ± 0.004 min⁻¹
rate constant of H2O2 consumption ([2]; 12.5 μM compound, various H2O2 concentrations, absence of NaSCN): 0.09 ± 0.004 min⁻¹
oxygen formation on addition of SCN ([3]; 10150 at 25 or 50 μM, 1 mM H2O2, presence vs absence of 1 mM SCN): dramatically inhibited the formation of oxygen
haloperoxidase activity ([3]; thiocyanate as substrate, generating HOSCN): has haloperoxidase activity

[5,10,15,20 tetrakis(1,3-diethylimidazolium-2-yl)porphyrinato] manganese (III) pentathiocyanate [10150-SCN]
IC50 of lipid peroxidation (TBARS formation) (rat brain homogenates): not statistically different
protection against hypochlorite-mediated epithelial cell injury [4]: synergistic effects
catalase activity ([2]; comparison of the 10150-Cl and SCN salts): lower catalase activity than 10150-Cl salt
